Test [1] relates to Mycolicibacterium smegmatis. The test is described as follows: Antimycobacterial activity against […] Mycobacterium smegmatis MC2 by agar dilution method. Format: functional.
The test system of test [2] is Mycobacterium tuberculosis. The test is described as follows: Antimycobacterial activity against Mycobacterium tuberculosis H37Rv by agar dilution method. Format: functional.

Values after ≈ are worked out from the molar mass of the structure shown.

This is an account of results in ChEMBL document CHEMBL1154173, “L-proline-catalysed facile green protocol for the synthesis and antimycobacterial evaluation of [1,4]-thiazines” (2009).

The term MIC denotes the smallest concentration in the dilution series that meets the test's criterion for growth inhibition. Low readings indicate inhibition by little substance, high ones a need for much substance. In the case of `CCOC(=O)C1C(c2ccccc2Br)N(C)C(c2ccccc2Br)C(C(=O)c2ccc(Cl)cc2)S1(=O)=O` (racemic), the MIC is 18.7 µM (≈ 12.5 µg/mL) in test [1] and 9.33 µM (≈ 6.25 µg/mL) in test [2].

For `CCOC(=O)C1C(c2ccco2)N(C)C(c2ccco2)C(C(=O)c2ccc(Cl)cc2)S1(=O)=O` (racemic), the MIC stood at 50.8 µM (≈ 25 µg/mL) in test [1] and 6.36 µM (≈ 3.13 µg/mL) in test [2].

In turn, `CCOC(=O)C1C(c2ccco2)NC(c2ccco2)C(C(=O)c2ccc(Cl)cc2)S1(=O)=O` (racemic) yielded an MIC in test [2] of 6.55 µM (≈ 3.13 µg/mL).

Regarding `CCOC(=O)C1C(c2cccc3ccccc23)NC(c2cccc3ccccc23)C(C(=O)c2ccc(Cl)cc2)S1(=O)=O` (racemic), the MIC in test [1] amounted to 20.9 µM (≈ 12.5 µg/mL); in test [2] it was 10.4 µM (≈ 6.25 µg/mL).

Take `CCOC(=O)C1C(c2ccc(Cl)cc2)N(Cc2ccccc2)C(c2ccc(Cl)cc2)C(C(=O)c2ccc(Cl)cc2)S1(=O)=O` (racemic): the MIC in test [1] was determined as 38 µM (≈ 25 µg/mL); in test [2], 9.51 µM (≈ 6.25 µg/mL).

`CCOC(=O)C1C(c2cccc([N+](=O)[O-])c2)N(C)C(c2cccc([N+](=O)[O-])c2)C(C(=O)c2ccc(Cl)cc2)S1(=O)=O` (racemic): the MIC in test [1] was determined as 41.5 µM (≈ 25 µg/mL); in test [2] it was 20.8 µM (≈ 12.5 µg/mL).

For the compound `CCOC(=O)C1C(c2ccccc2)N(Cc2ccccc2)C(c2ccccc2)C(C(=O)c2ccc(Cl)cc2)S1(=O)=O` (racemic), the MIC in test [1] and in test [2] was 42.5 µM (≈ 25 µg/mL) in each case.

On to `CCOC(=O)C1C(c2cccc(F)c2)N(Cc2ccccc2)C(c2cccc(F)c2)C(C(=O)c2ccc(Cl)cc2)S1(=O)=O` (racemic), for which the MIC is 40.1 µM (≈ 25 µg/mL) in test [1] and 10 µM (≈ 6.25 µg/mL) in test [2].

Take `CCOC(=O)C1C(c2ccc(Cl)cc2)N(C)C(c2ccc(Cl)cc2)C(C(=O)c2ccc(Cl)cc2)S1(=O)=O` (racemic): the minimal inhibitory concentration (MIC) is 43 µM (≈ 25 µg/mL) in test [1] and 5.39 µM (≈ 3.13 µg/mL) in test [2].

`CCOC(=O)C1C(c2ccccc2[N+](=O)[O-])NC(c2ccccc2[N+](=O)[O-])C(C(=O)c2ccc(Cl)cc2)S1(=O)=O` (racemic) had an MIC in test [2] of 3.03 µM (≈ 1.78 µg/mL).

As for `CCOC(=O)C1C(c2ccc(C)cc2)NC(c2ccc(C)cc2)C(C(=O)c2ccc(Cl)cc2)S1(=O)=O` (racemic), the MIC worked out at 2.97 µM (≈ 1.56 µg/mL) in test [1] and 1.48 µM (≈ 0.779 µg/mL) in test [2].

In the case of `CCOC(=O)C1C(c2ccccc2OC)NC(c2ccccc2OC)C(C(=O)c2ccc(Cl)cc2)S1(=O)=O` (racemic), the MIC in test [1] is 11.2 µM (≈ 6.25 µg/mL); in test [2], 5.61 µM (≈ 3.13 µg/mL).

Compound `CCOC(=O)C1C(c2ccc(Cl)cc2Cl)NC(c2ccc(Cl)cc2Cl)C(C(=O)c2ccc(Cl)cc2)S1(=O)=O` (racemic) had an MIC in test [2] of 1.23 µM (≈ 0.782 µg/mL).

In the case of `CCOC(=O)C1C(c2ccc(OC)cc2)NC(c2ccc(OC)cc2)C(C(=O)c2ccc(Cl)cc2)S1(=O)=O` (racemic), the MIC in test [1] worked out at 1.4 µM (≈ 0.781 µg/mL); in test [2] it was 0.72 µM (≈ 0.402 µg/mL).

For `CCOC(=O)C1C(c2ccccc2)N(C)C(c2ccccc2)C(C(=O)c2ccc(Cl)cc2)S1(=O)=O` (racemic), the MIC came to 48.8 µM (≈ 25 µg/mL) in test [1] and 24.4 µM (≈ 12.5 µg/mL) in test [2].

`CCOC(=O)C1C(c2ccc(Cl)cc2)NC(c2ccc(Cl)cc2)C(C(=O)c2ccc(Cl)cc2)S1(=O)=O` (racemic): the MIC in test [1] was found to be 11 µM (≈ 6.25 µg/mL); in test [2] it was 2.75 µM (≈ 1.56 µg/mL).

Take `CCOC(=O)C1C(c2ccccc2)NC(c2ccccc2)C(C(=O)c2ccc(Cl)cc2)S1(=O)=O` (racemic): the MIC in test [1] was 50.2 µM (≈ 25 µg/mL); in test [2], 12.6 µM (≈ 6.25 µg/mL).

For the compound `CCOC(=O)C1C(c2ccc(N(C)C)cc2)NC(c2ccc(N(C)C)cc2)C(C(=O)c2ccc(Cl)cc2)S1(=O)=O` (racemic), inhibition of growth in test [2] (MIC) required 10.7 µM (≈ 6.25 µg/mL). This counts as double-digit micromolar.

For `CCOC(=O)C1C(c2ccccc2C)N(C)C(c2ccccc2C)C(C(=O)c2ccc(Cl)cc2)S1(=O)=O` (racemic), the results for the MIC in test [1] and in test [2] were 23.1 µM (≈ 12.5 µg/mL) and 11.6 µM (≈ 6.25 µg/mL), respectively.

Take `CCOC(=O)C1C(c2ccc(C)cc2)N(C)C(c2ccc(C)cc2)C(C(=O)c2ccc(Cl)cc2)S1(=O)=O` (racemic): the lowest concentration to inhibit growth in test [2] (MIC) was 5.8 µM (≈ 3.13 µg/mL). This counts as single-digit micromolar.

In the case of `CCOC(=O)C1C(c2cccc([N+](=O)[O-])c2)NC(c2cccc([N+](=O)[O-])c2)C(C(=O)c2ccc(Cl)cc2)S1(=O)=O` (racemic), the MIC in test [1] came to 10.6 µM (≈ 6.25 µg/mL); in test [2], 5.32 µM (≈ 3.13 µg/mL).

The compound `CCOC(=O)C1C(c2cccc(F)c2)NC(c2cccc(F)c2)C(C(=O)c2ccc(Cl)cc2)S1(=O)=O` (racemic) returned an MIC in test [2] of 5.86 µM (≈ 3.13 µg/mL).

Turning to `CCOC(=O)C1C(c2cccs2)NC(c2cccs2)C(C(=O)c2ccc(Cl)cc2)S1(=O)=O` (racemic), the MIC in test [1] and in test [2] was 12.2 µM (≈ 6.25 µg/mL) in each case.

Consider `CCOC(=O)C1C(c2ccc([N+](=O)[O-])cc2)NC(c2ccc([N+](=O)[O-])cc2)C(C(=O)c2ccc(Cl)cc2)S1(=O)=O` (racemic), for which the MIC in test [1] came out at 10.6 µM (≈ 6.25 µg/mL); in test [2], 0.68 µM (≈ 0.4 µg/mL).

With `CCOC(=O)C1C(c2ccc(C)cc2)N(Cc2ccccc2)C(c2ccc(C)cc2)C(C(=O)c2ccc(Cl)cc2)S1(=O)=O` (racemic), the MIC in test [1] amounted to 40.6 µM (≈ 25 µg/mL); in test [2], 20.3 µM (≈ 12.5 µg/mL).

`CCOC(=O)C1C(c2ccc(OC)cc2)N(Cc2ccccc2)C(c2ccc(OC)cc2)C(C(=O)c2ccc(Cl)cc2)S1(=O)=O` (racemic) had an MIC in test [2] of 9.64 µM (≈ 6.25 µg/mL).

Consider `CCOC(=O)C1C(c2ccc(F)cc2)N(Cc2ccccc2)C(c2ccc(F)cc2)C(C(=O)c2ccc(Cl)cc2)S1(=O)=O` (racemic), for which the MIC came to 40.1 µM (≈ 25 µg/mL) in test [1] and 5.02 µM (≈ 3.13 µg/mL) in test [2].

`CC[C@@H](CO)NCCN[C@@H](CC)CO` [ETHAMBUTOL]: the MIC in test [2] came out at 7.64 µM (≈ 1.56 µg/mL).

Turning to `NNC(=O)c1ccncc1` [ISONIAZID], the MIC was determined as 45.6 µM (≈ 6.25 µg/mL) in test [1] and 0.36 µM (≈ 0.0494 µg/mL) in test [2].

As to `NC(=O)c1cnccn1` [PYRAZINAMIDE], in test [2], the MIC is 50.8 µM (≈ 6.25 µg/mL).

Consider `CO[C@H]1/C=C/O[C@@]2(C)Oc3c(C)c(O)c4c(O)c(c(/C=N/N5CCN(C)CC5)c(O)c4c3C2=O)NC(=O)/C(C)=C\C=C\[C@H](C)[C@H](O)[C@@H](C)[C@@H](O)[C@@H](C)[C@H](OC(C)=O)[C@@H]1C` [RIFAMPIN], for which the MIC in test [2] was determined as 0.12 µM (≈ 0.0988 µg/mL). Compared with the last compound, the MIC is about 420-fold lower.
